Reference: patent US6479435B1, “Diaryl ethers and processes for their preparation and herbicidal and desiccant compositions containing them” (ISK Americas Incorporated, priority 1997, dated 2002)

Experiments:
Format in all cases: in vivo
[1] = test system: field corn (Zea mays L., var. Dekalb 535, CORN); test: Post-emerge greenhouse test, crop damage rating; conditions: 14 days after application, scale 0-100
Procedure, shortened: (§1)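 Scores use a 0 (no damage) to 100 (complete kill) scale, taken 14 days after a foliar spray. Acetone solutions with 0.25% v/v non-ionic surfactant were applied by track sprayer at 187 l/ha and 63-1000 g ai/ha to bottom-watered 2-3 leaf plants.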

[2] = test system: upland rice (Oryza sp., var.Tebonnet, RICE); test: Post-emerge greenhouse test, crop damage rating; conditions: 14 days after application, scale 0-100
Procedure, shortened: as §1

[3] = test system: sicklepod (Cassia obtusifolia, CASOB); test: Pre-emerge greenhouse herbicide test, phytotoxicity rating; conditions: 14 days after application, rating scale 0-100
Procedure, shortened: (§2)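 Visual 0–100 injury rating (100 = all plants dead) taken 14 days after treatment. Rates of 125–1000 g ai/ha in acetone, 187 l/ha, were sprayed onto soil one day post-sowing; pots were surface-watered to incorporate, then bottom-watered.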

[4] = test system: common ragweed (Ambrosia artemisiifolia L., AMBEL); test: as above; conditions: 14 days after application, rating scale 0-100
Procedure, shortened: as §2

[5] = test system: large crabgrass (Digitaria sanguinalis, DIGSA); test: as above; conditions: 14 days after application, rating scale 0-100
Procedure, shortened: as §2

[6] = test system: Johnsongrass (Sorghum halepense, SORHA); test: as above; conditions: 14 days after application, rating scale 0-100
Procedure, shortened: as §2

[7] = test system: lambsquarters (Chenopodium album, CHEAL); test: as above; conditions: 14 days after application, rating scale 0-100
Procedure, shortened: as §2

[8] = test system: barnyardgrass (Echinochloa crusgalli, ECHCG); test: as above; conditions: 14 days after application, rating scale 0-100
Procedure, shortened: as §2

[9] = test system: velvetleaf (Abutilon theophrasti, ABUTH); test: as above; conditions: 14 days after application, rating scale 0-100
Procedure, shortened: as §2

[10] = test system: redroot pigweed (Amaranthus retroflexus, AMARE); test: as above; conditions: 14 days after application, rating scale 0-100
Procedure, shortened: as §2

[11] = test system: ivyleaf morningglory (Ipomoea hederacea, IPOHE); test: as above; conditions: 14 days after application, rating scale 0-100
Procedure, shortened: as §2

[12] = test system: green foxtail (Setaria viridis, SETVI); test: as above; conditions: 14 days after application, rating scale 0-100
Procedure, shortened: as §2

[13] = test system: field corn (Zea mays L., var. Dekalb 535, CORN); test: Pre-emerge greenhouse test, crop damage rating; conditions: 14 days after application, rating scale 0-100
Procedure, shortened: as §2

[14] = test system: upland rice (Oryza sp., var.Tebonnet, RICE); test: Pre-emerge greenhouse test, crop damage rating; conditions: 14 days after application, rating scale 0-100
Procedure, shortened: as §2

[15] = test system: soybean (Glycine max L., var. Pella 86, SOY); test: Pre-emerge greenhouse test, crop damage rating; set-up: key to SOY crop damage rating: 0 = no damage, 100 = complete death of all plants; conditions: 14 days after application, rating scale 0-100
Procedure, shortened: as §2

[16] = test system: common ragweed (Ambrosia artemisiifolia L., AMBEL); test: Post-emerge greenhouse herbicide test, phytotoxicity rating; conditions: 14 days after application, scale 0-100
Procedure, shortened: as §1

[17] = test system: soybean (Glycine max L., var. Pella 86, SOY); test: Post-emerge greenhouse test, crop damage rating; set-up: key to crop damage rating SOY: 0-100 scale: 0 = no damage, 100 = complete death of all plants; conditions: 14 days after application, scale 0-100
Procedure, shortened: as §1

[18] = test system: sicklepod (Cassia obtusifolia, CASOB); test: Post-emerge greenhouse herbicide test, phytotoxicity rating; conditions: 14 days after application, scale 0-100
Procedure, shortened: as §1

[19] = test system: large crabgrass (Digitaria sanguinalis, DIGSA); test: as above; conditions: 14 days after application, scale 0-100
Procedure, shortened: as §1

[20] = test system: Johnsongrass (Sorghum halepense, SORHA); test: as above; conditions: 14 days after application, scale 0-100
Procedure, shortened: as §1

[21] = test system: lambsquarters (Chenopodium album, CHEAL); test: as above; conditions: 14 days after application, scale 0-100
Procedure, shortened: as §1

[22] = test system: barnyardgrass (Echinochloa crusgalli, ECHCG); test: as above; conditions: 14 days after application, scale 0-100
Procedure, shortened: as §1

[23] = test system: velvetleaf (Abutilon theophrasti, ABUTH); test: as above; conditions: 14 days after application, scale 0-100
Procedure, shortened: as §1

[24] = test system: redroot pigweed (Amaranthus retroflexus, AMARE); test: as above; conditions: 14 days after application, scale 0-100
Procedure, shortened: as §1

[25] = test system: ivyleaf morningglory (Ipomoea hederacea, IPOHE); test: as above; conditions: 14 days after application, scale 0-100
Procedure, shortened: as §1

[26] = test system: green foxtail (Setaria viridis, SETVI); test: as above; conditions: 14 days after application, scale 0-100
Procedure, shortened: as §1

## O=c1n(-c2cc(Oc3ncccc3[N+](=O)[O-])c(Cl)cc2F)c(=S)n2n1CCCC2 [Compound 8-19]
[1]; rate 63 g ai/ha
  crop damage rating CORN: 30
[1]; rate 500 g ai/ha
  crop damage rating CORN: 30
[2]; rate 63 g ai/ha
  crop damage rating RICE: 40
[2]; rate 500 g ai/ha
  crop damage rating RICE: 60
[3]; Rate 125 g al/ha
  CASOB phytotoxicity rating: 20
[3]; Rate 500 g al/ha
  CASOB phytotoxicity rating: 100
[4]; Rate 125 g al/ha
  AMBEL phytotoxicity rating: 50
[4]; Rate 500 g al/ha
  AMBEL phytotoxicity rating: 100
[5]; Rate 125 g al/ha
  DIGSA phytotoxicity rating: 30
[5]; Rate 500 g al/ha
  DIGSA phytotoxicity rating: 100
[6]; Rate 125 g al/ha
  SORHA phytotoxicity rating: 80
[6]; Rate 500 g al/ha
  SORHA phytotoxicity rating: 95
[7]; Rate 125 g al/ha
  CHEAL phytotoxicity rating: 100
[7]; Rate 500 g al/ha
  CHEAL phytotoxicity rating: 100
[8]; Rate 125 g al/ha
  ECHCG phytotoxicity rating: 50
[8]; Rate 500 g al/ha
  ECHCG phytotoxicity rating: 95
[9]; Rate 125 g al/ha
  ABUTH phytotoxicity rating: 100
[9]; Rate 500 g al/ha
  ABUTH phytotoxicity rating: 100
[10]; Rate 125 g al/ha
  AMARE phytotoxicity rating: 100
[10]; Rate 500 g al/ha
  AMARE phytotoxicity rating: 100
[11]; Rate 125 g al/ha
  IPOHE phytotoxicity rating: 40
[11]; Rate 500 g al/ha
  IPOHE phytotoxicity rating: 90
[12]; Rate 125 g al/ha
  SETVI phytotoxicity rating: 100
[12]; Rate 500 g al/ha
  SETVI phytotoxicity rating: 100
[13]; Rate 125 g al/ha
  CORN crop damage rating: 15
[13]; Rate 500 g al/ha
  CORN crop damage rating: 30
[14]; Rate 125 g al/ha
  RICE crop damage rating: 50
[14]; Rate 500 g al/ha
  RICE crop damage rating: 80
[15]; Rate 125 g al/ha
  SOY crop damage rating: 20
[15]; Rate 500 g al/ha
  SOY crop damage rating: 0
[16]; rate 63 g ai/ha
  phytotoxicity rating AMBEL: 90
[16]; rate 500 g ai/ha
  phytotoxicity rating AMBEL: 90
[17]; rate 63 g ai/ha
  crop damage rating SOY: 65
[17]; rate 500 g ai/ha
  crop damage rating SOY: 50
[18]; rate 63 g ai/ha
  phytotoxicity rating CASOB: 70
[18]; rate 500 g ai/ha
  phytotoxicity rating CASOB: 90
[19]; rate 63 g ai/ha
  phytotoxicity rating DIGSA: 30
[19]; rate 500 g ai/ha
  phytotoxicity rating DIGSA: 30
[20]; rate 63 g ai/ha
  phytotoxicity rating SORHA: 50
[20]; rate 500 g ai/ha
  phytotoxicity rating SORHA: 50
[21]; rate 63 g ai/ha
  phytotoxicity rating CHEAL: 100
[21]; rate 500 g ai/ha
  phytotoxicity rating CHEAL: 100
[22]; rate 63 g ai/ha
  phytotoxicity rating ECHCG: 50
[22]; rate 500 g ai/ha
  phytotoxicity rating ECHCG: 50
[23]; rate 63 g ai/ha
  phytotoxicity rating ABUTH: 100
[23]; rate 500 g ai/ha
  phytotoxicity rating ABUTH: 100
[24]; rate 63 g ai/ha
  phytotoxicity rating AMARE: 100
[24]; rate 500 g ai/ha
  phytotoxicity rating AMARE: 100
[25]; rate 63 g ai/ha
  phytotoxicity rating IPOHE: 100
[25]; rate 500 g ai/ha
  phytotoxicity rating IPOHE: 100
[26]; rate 63 g ai/ha
  phytotoxicity rating SETVI: 60
[26]; rate 500 g ai/ha
  phytotoxicity rating SETVI: 90
